Where “and” joins values, the source holds several entries; their conditions need not be identical. Identical values can stand only once. Like-named read-outs stand apart in the source and are kept apart here.
Assays:
[1] = test system: Enrlich carcinoma; assay: Antineoplastic activity against Enrlich carcinoma (life prolongation rate); assay type: in vivo, 5-week-old ICR mice (male); parameters: response vs control in vivo: dose or concentration left out as unconfirmed; conditions: for response vs control in vivo at 8 mg/kg / response vs control in vivo at 16 mg/kg / response vs control in vivo / response vs control in vivo at 1 mg/kg / response vs control in vivo at 2 mg/kg / response vs control in vivo at 4 mg/kg: Mus musculus, ip, 1440 h, read-out: Life prolongation rate (T/C %); for response vs control in vivo at 1 mg/kg: 1.0 mg/kg/day
Procedure: Approximately 10^6 cells/0.2 ml of Enrlich carcinoma were inoculated into the abdominal cavity of each of the 5-week-old ICR mice (male) used for the test, and the test compounds were administered intraperitoneally to the mice of the treated group once a day for a period of 7 days, starting from the day after said inoculation. The mice of the control group was administered with a saline solution in the same way. Observation of the animals of both groups was continued for 60 days after the administration, and the life prolongation rate (T/C%, T/C×100) was determined from the average duration (days) of life of the mice of the treated group (T) and that of the mice of the control group (C).

[2] = in vivo; conditions: mouse, ip, LD50, intraperitoneal, once a day, 7 days, mice
[3] = 8.0 mg/kg/day, intraperitoneal, once a day, 7 days
[4] = […], intraperitoneal, (Note 1) administered for 4 days
[5] = intraperitoneal, once a day, 7 days
[6] = 2.0 mg/kg/day, intraperitoneal, once a day, 7 days
[7] = […], intraperitoneal, (Note 2) administered for 2 days
[8] = […], intraperitoneal, once a day, 7 days

SMILES	response vs control in vivo at 8 mg/kg [1, 3]	response vs control in vivo [1, 5]	LD50 [2]	response vs control in vivo at 2 mg/kg [1, 6]	other results
Cn1cncc1Br [Compound 1-28, Selenium oxychloride-1-methyl-5-bromoimidazole (1:2) complex]	215%	217%	> 16 mg/kg		response vs control in vivo at 16 mg/kg [1, 4]: 264%
CCC1CO[Se](=O)O1 (stereo not drawn) [Compound 3-8, 1,2-butanediolselenite]	212%	194%	> 8 mg/kg	250%	response vs control in vivo at 1 mg/kg [1, 5]: 208%
CC(C)(Cl)CO[Se](=O)OCC(C)(C)Cl [Compound 3-2, Di-(2-chloro-2-methylpropyl)-selenite]	207%	232%	8 to 16 mg/kg	178%	response vs control in vivo at 16 mg/kg [1, 7]: 63%
N#Cc1cccnc1 [Compound 2-7, Tetrachloroselenium-3-cyanopyridine (1:2) complex]			8 to 16 mg/kg		response vs control in vivo at 2 mg/kg ([1]; 2.0 mg/kg/day, intraperitoneal, 7 days, solvent used: DMSO): 201%; response vs control in vivo at 8 mg/kg ([1]; 8.0 mg/kg/day, intraperitoneal, 7 days, solvent used: DMSO): 214%; response vs control in vivo at 16 mg/kg ([1]; […], intraperitoneal, 7 days, solvent used: DMSO): 67%; response vs control in vivo ([1]; intraperitoneal, 7 days, solvent used: DMSO): 243%
c1ccc(-c2ccncc2)cc1 [Compound 1-11, Selenium oxychloride-4-phenylpyridine (1:2) complex]	230%		> 16 mg/kg	166%	response vs control in vivo at 16 mg/kg [1, 8]: 221%
Cn1c(=O)c2c(ncn2Cc2ccccc2)n(C)c1=O [Compound 1-33, Selenium oxychloride-N--benzyltheophylline (1:2) complex]	214%		> 16 mg/kg	138%	response vs control in vivo at 16 mg/kg [1, 8]: 205%
Clc1cncc(Cl)c1 [Compound 1-15, Selenium oxychloride-3,5-dichlorpyridine (1:2) complex]	191%	174%	8 to 16 mg/kg	154%	response vs control in vivo at 16 mg/kg [1, 4]: 162%
O=[Se](OC1CCCCC1Cl)OC1CCCCC1Cl (stereo not drawn) [Compound 3-6, Di-(2-chlorcyclohexyl)selenite]	253%	216%	8 to 16 mg/kg	210%	response vs control in vivo at 16 mg/kg ([1]; […], intraperitoneal, (Note 3) administered for 3 days): 95%
CCCCCCC(Cl)CO[Se](=O)OCC(Cl)CCCCCC (stereo not drawn) [Compound 3-4, Di-(2-chlorooctyl)selenite]	180%	208%	8 to 16 mg/kg	156%	response vs control in vivo at 16 mg/kg [1, 4]: 53%
O=[Se](OC1C2CCC(C2)C1Cl)OC1C2CCC(C2)C1Cl (stereo not drawn) [Compound 3-7, Di-(3-chloronorbonyl-2-il)selenite]	201%	148%	8 to 16 mg/kg	143%	response vs control in vivo at 16 mg/kg [1, 4]: 119%
CCC1(CC)CO[Se](=O)OC1 [Compound 3-9, 2,2-diethyl-1,3-propanediolselenite]	223%	204%	> 16 mg/kg	152%	response vs control in vivo at 16 mg/kg [1, 8]: 194%
CCc1ccncc1 [Compound 1-6, Selenium oxychloride-4-ethylpyridine (1:2) complex]	244%	209%	8 to 16 mg/kg	173%	response vs control in vivo at 16 mg/kg [1, 4]: 103%
c1ccc(-c2cccnc2)cc1 [Compound 1-10, Selenium oxychloride-3-phenylpyridine (1:2) complex]	203%	192%	> 16 mg/kg	251%	response vs control in vivo at 16 mg/kg [1, 8]: 199%
Cn1cnc2c1c(=O)n(Cc1ccccc1)c(=O)n2C [Compound 1-34, Selenium oxychloride-N--benzyltheobromine (1:2) complex]	187%	159%	> 16 mg/kg	122%	response vs control in vivo at 16 mg/kg [1, 8]: 190%
Brc1cccnc1 [Compound 1-14, Selenium oxychloride-3-bromopyridine (1:2) complex]	202%	179%	8 to 16 mg/kg	163%	response vs control in vivo at 16 mg/kg [1, 4]: 147%
c1ccncc1 [Compound 1-1, Selenium oxybromide-pyridine (1:2) complex]			8 to 16 mg/kg		Life prolongation rate (T/C %) ([1]; mouse, in vivo): 165% and 173% and 181% and 130%
CN(C)c1ccncc1 [Compound 3-12, Selenium oxychloride-4-dimethylaminopyridine (1:2) complex]			> 16 mg/kg		response vs control in vivo at 2 mg/kg [1]: 169%; response vs control in vivo at 4 mg/kg [1]: 183%; response vs control in vivo at 8 mg/kg [1]: 232%; response vs control in vivo at 16 mg/kg [1]: 190%
Clc1cccnc1 [Compound 1-13, Selenium oxychloride-3-chloropyridine (1:2) complex]			8 to 16 mg/kg		response vs control in vivo at 2 mg/kg [1]: 142%; response vs control in vivo at 4 mg/kg [1]: 172%; response vs control in vivo at 8 mg/kg [1]: 158%; response vs control in vivo at 16 mg/kg [1]: 84%
CC(C)c1ccncc1 [Compound 1-7, Selenium oxychloride-4-isopropylpyridine (1:2) complex]	256%	222%	8 to 16 mg/kg		response vs control in vivo at 16 mg/kg [1, 4]: 201%
Cc1ccccn1 [Compound 1-2, Selenium oxychloride-2-picoline (1:2) complex]			8 to 16 mg/kg		response vs control in vivo at 2 mg/kg [1]: 176%; response vs control in vivo at 4 mg/kg [1]: 169%; response vs control in vivo at 8 mg/kg [1]: 194%; response vs control in vivo at 16 mg/kg [1]: 75%
CCC(Cl)CO[Se](=O)OCC(Cl)CC (stereo not drawn) [Compound 3-3, Di-(2-chlorobutyl)selenite]	212%	230%	> 8 mg/kg	205%	response vs control in vivo at 1 mg/kg [1, 5]: 172%
O=[Se](OCC(Cl)c1ccccc1)OCC(Cl)c1ccccc1 (stereo not drawn) [Compound 3-5]	223%	194%	> 16 mg/kg	154%	response vs control in vivo at 16 mg/kg ([1]; […], intraperitoneal, (Note 5) administered for 6 days): 167%
O=P(c1ccccc1)(c1ccccc1)c1ccccc1 [Compound 1-36, Selenium oxycloride-triphenylphosphine oxide (1:2) complex]		186%	> 16 mg/kg	155%	response vs control in vivo at 16 mg/kg [1, 8]: 197%
CC(Cl)C(C)O[Se](=O)OC(C)C(C)Cl (stereo not drawn) [Compound 3-1, Di-(2-chloro-1-methylpropyl)-selenite]	193%	179%	8 to 16 mg/kg	177%	response vs control in vivo at 16 mg/kg [1, 8]: 90%
Fc1cccnc1 [Compound 1-12, Selenium oxychloride-3-fluoropyridine (1:2) complex]	201%	219%	8 to 16 mg/kg	194%	response vs control in vivo at 16 mg/kg [1, 7]: 140%
